Measured values reported in PubChem BioAssay (NCI).
Where “and” joins values, the source holds several entries; their conditions need not be identical. Identical values can stand only once.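 Following 48 hours of exposure in 96-well plates, responses at five concentrations were used to interpolate endpoints linearly. GI50: concentration for 50% inhibition of growth. TGI is the concentration that stops growth completely.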

Assays:
Test in all cases: growth of human tumour cells (NCI), 48 h
M19-MEL melanoma = tested on: M19-MEL melanoma
SNB-78 CNS = tested on: SNB-78 CNS
DMS 114 small cell lung = tested on: DMS 114 small cell lung
DMS 273 small cell lung = tested on: DMS 273 small cell lung
DLD-1 colon = tested on: DLD-1 colon
MDA-N = tested on: MDA-N
XF 498 CNS = tested on: XF 498 CNS
RXF-631 renal = tested on: RXF-631 renal
HOP-18 NSCLC = tested on: HOP-18 NSCLC

| SMILES | TGI (M19-MEL melanoma) [µM] | TGI (SNB-78 CNS) [µM] | TGI (DMS 114 small cell lung) | TGI (DMS 273 small cell lung) [µM] | TGI (DLD-1 colon) [µM] | TGI (MDA-N) | TGI (XF 498 CNS) [µM] | TGI (RXF-631 renal) [µM] | TGI (HOP-18 NSCLC) [µM] | other results |
| --- | --- | --- | --- | --- | --- | --- | --- | --- | --- | --- |
| NC(=O)c1ncn(C2OC(CO)C(O)C2O)c1NC(=S)NC(=O)c1ccccc1 (stereo not drawn) | > 100 | > 100 | > 100 µM | > 100 | > 100 |  |  |  |  |  |
| Nc1ccc2c(SCC(=O)Nc3ccccc3-c3ccccc3NC(=O)CSc3c4ccccc4nc4cc(N)ccc34)c3ccccc3nc2c1 | 70.5 | > 100 | 56.2 µM | > 100 | 38.4 | > 69.5 µM | 52.8 | > 100 | 68.8 |  |
| CC(=O)[O-].O=[N+]([O-])c1ccc([O-])c(C=NCCN=Cc2cc([N+](=O)[O-])ccc2[O-])c1.[Mn+3] | > 100 | > 100 | > 100 µM | > 100 | > 100 |  |  |  | > 100 | GI50 (M19-MEL melanoma): > 100 µM; GI50 (SNB-78 CNS): > 100 µM; GI50 (DMS 114 small cell lung): 98 µM; GI50 (HOP-18 NSCLC): > 100 µM; GI50 (DMS 273 small cell lung): > 100 µM; GI50 (DLD-1 colon): > 100 µM |
| C1=CC=C2NCCSCCNC3=CC=CC=CC3=NCCSCCN=C2C=C1 | > 100 | > 100 | > 100 µM | > 100 | > 100 |  |  |  | > 100 |  |
| COc1cc(/C=C2/C(=O)N(C(=O)c3ccccc3O)N=C2C)ccc1O | > 100 |  | 7.73 µM |  | > 100 | > 100 µM | 79.6 |  |  |  |
| O=C1[C@H]2ON(c3ccccc3)C(c3cccc([N+](=O)[O-])c3)[C@H]2C(=O)N1c1ccc(Cc2ccc(N3C(=O)[C@@H]4ON(c5ccccc5)C(c5cccc([N+](=O)[O-])c5)[C@@H]4C3=O)cc2)cc1 (stereo partly drawn) | > 100 | > 100 | > 100 µM | > 100 | > 100 |  |  |  | > 100 |  |
| CCCCOP1(=O)C=CC(Cl)=C(C)C1 (stereo not drawn) | > 100 |  | 71.7 µM |  |  |  | 43.2 | > 100 | > 100 |  |
| CC(C)(C)c1cc(C(=O)O)c(C(c2ccccc2)c2ccccc2C(=O)O)c(C(=O)O)c1 (stereo not drawn) |  | > 100 | > 100 µM | > 100 | > 100 |  | > 100 |  | > 100 |  |
| C=C1c2ccccc2N(S(=O)(=O)c2ccc(C)cc2)C12CCCCC2 | > 100 |  | > 100 µM | > 100 | > 100 |  | > 100 |  | > 100 |  |
| CN1C=C(C(N)=O)C2CC(O)[C@@](NC(=O)CS(N)(=O)=O)(C(=O)O)C2C1 (stereo partly drawn) | 15.8 | 8.68 | 7.38 µM | 9.75 | 52.7 |  | 3.21 | 9.7 | > 100 |  |
| O=C1OC(c2ccc(Cl)c3ccccc23)c2ccccc21 (stereo not drawn) | > 100 | > 100 | > 100 µM |  |  |  | > 100 | > 100 | > 100 |  |
| BrC(Br)([P+](c1ccccc1)(c1ccccc1)c1ccccc1)[P+](c1ccccc1)(c1ccccc1)c1ccccc1 | 38.4 | 90.1 | 30.3 µM | 32.6 | 40.6 |  |  |  | > 100 |  |
| CCCC/C=C1\CCC(CN2CCCC2)C1=O (stereo not drawn) | 33.5 | 57.2 | 31.8 µM | 34.3 | 12.8 |  | 29.6 | 32.4 |  |  |
| CCCC(=O)Nc1cn(COC)c(C(=O)N2C[C@H]3C[C@@]34C2=CC(=O)c2[nH]cc(C)c24)n1 |  |  |  |  |  | 19.5 µM and 59.6 µM |  |  |  | GI50 (MDA-N): 7.62 µM |
| O=c1ncccn1C1OC(CO)C(O)C1F (stereo not drawn) | > 100 | > 100 | > 100 µM | > 100 | > 100 |  | > 100 | > 100 | > 100 | GI50 (DLD-1 colon): > 100 µM |
| OCCN(CCO)c1ncnc2c1sc(=S)n2-c1ccccc1 | > 100 | > 100 | > 100 µM | > 100 | > 100 |  | > 100 |  | > 100 |  |
| O=c1/c(=C/c2ccc3c(c2)OCO3)sc2nnc(Cc3ccccc3)n12 | > 100 | > 100 | > 100 µM | > 100 | > 100 |  |  |  | > 100 |  |
| CC1(C)Oc2ccccc2N2O[C@@H]3C(=O)N(c4ccccc4)C(=O)[C@@H]3C21c1ccccc1 (stereo partly drawn) | 72.5 | 79.4 | 62.9 µM |  | 65.7 |  |  |  | 49.1 |  |
| Cc1cc(N(CCC#N)CCC#N)ccc1/C=C/C(=O)Nc1ccccc1Cl | > 100 |  | > 100 µM | > 100 | > 100 |  | > 100 |  |  |  |

| SMILES | TGI (M19-MEL melanoma) [µM] | TGI (SNB-78 CNS) [µM] | TGI (DMS 114 small cell lung) | TGI (DMS 273 small cell lung) [µM] | TGI (DLD-1 colon) [µM] | TGI (MDA-N) | TGI (XF 498 CNS) [µM] | TGI (RXF-631 renal) [µM] | TGI (HOP-18 NSCLC) [µM] | other results |
| --- | --- | --- | --- | --- | --- | --- | --- | --- | --- | --- |
| Cc1nnc(N=Nc2c(O)[nH]c3ccccc23)[nH]c1=O |  |  |  |  |  | > 100 µM |  |  |  |  |
| CCOc1ccccc1NC(=O)CCC(=O)NN |  | > 100 |  | > 100 | > 100 |  | > 100 | > 100 |  |  |
| O=C(O)C(O)c1ccc(F)cc1 (stereo not drawn) |  |  |  |  |  | > 100 µM |  |  |  |  |
| CN1C(=O)CC2(C)c3cc(C=O)ccc3N(C)C12 (stereo not drawn) | > 100 | > 100 | > 100 µM |  | > 100 |  | > 100 | > 100 | > 100 |  |
| CCOC(=O)c1cc(C(=O)O)c(=O)n2c1[nH]c1ccccc12 | > 100 | > 100 | > 100 µM | > 100 | > 100 |  | > 100 | > 100 | > 100 |  |
| Cc1cc(C)c2nccc(NCCCN(C)C)c2c1[N+](=O)[O-] |  |  |  |  |  | > 100 µM |  |  |  |  |
| COc1cc2c(c(OC)c1OC)-c1ccc(SC)c(=O)cc1[C@@H](NC(=O)c1ccc(F)cc1)CC2 | > 100 | > 100 | 0.0636 µM and < 0.01 µM | 44.7 | > 100 |  | 0.0844 |  |  | GI50 (M19-MEL melanoma): < 0.01 µM; GI50 (SNB-78 CNS): < 0.01 µM; GI50 (DMS 114 small cell lung): 0.0267 µM and < 0.01 µM; GI50 (DLD-1 colon): < 0.01 µM |
| C=CCN(N=O)C(=O)ON1C(=O)CCC1=O | > 100 | > 100 | > 100 µM | > 100 | > 100 |  |  | > 100 | > 100 |  |
| c1cc2ccc1C1NCCCN1CCN1CCCNC1c1ccc(cc1)C1NCCCN1CCN1CCCNC21 (stereo not drawn) | > 100 |  | > 100 µM | > 100 | > 100 |  | > 100 |  | > 100 |  |
| O=C(/C(=N/Nc1cn[nH]c(=O)c1Cl)c1ccccc1)c1ccccc1 |  |  |  |  |  | 32.8 µM |  |  |  |  |
| CCC1(Cl)C(=O)NC(=O)N(C2CC(O)C(CO)O2)C1N=[N+]=[N-] (stereo not drawn) | > 100 | > 100 | > 100 µM | > 100 | > 100 |  | > 100 | > 100 |  |  |
| C/C(N=NC(=S)N1CCCCCC1)=C1\C=CC=CN1O | 59.3 | > 100 | 3.45 µM | 42.1 | > 100 | > 100 µM | > 100 | > 100 | > 92.9 |  |
| C=C[C@@]1(C)CC(=O)[C@]2(O)[C@@]3(C)[C@@H](O)CCC(C)(C)[C@@H]3[C@H](O)[C@@H](OC(C)=O)[C@@]2(C)O1 |  |  |  |  |  | > 100 µM |  |  |  |  |
| O=C1Nc2ccc(Br)cc2C1=Nc1ccc(Cl)cc1 |  |  |  |  |  | 23.5 µM |  |  |  |  |
| CC(=O)Oc1ccc2c(c1)O/C(=C\c1ccc(O)cc1)C2=O |  |  |  |  |  | > 100 µM |  |  |  |  |
| COC(=O)C1=C(C(=O)OC)C(C(=O)OC)C(C(=O)OC)C(C(=O)OC)(C(=O)OC)C(C(=O)OC)=C1C(=O)OC (stereo not drawn) | 25.6 | 44 | 23.2 µM |  | 6.98 | 31.2 µM | 25.3 |  | 31 |  |
| O=C(O)C(Cc1c[nH]c2ccccc12)N1C(=O)c2ccccc2C1=O (stereo not drawn) |  |  |  |  |  | > 100 µM |  |  |  |  |
| C=C1C(=O)C23CC1CCC2C12CO[C@@]3(O)[C@@H](O)C1C(C)(C)C=CC2=O (stereo partly drawn) | 1.72 | 2.23 |  | 1.3 | 2.22 | 7.71 µM | 1.42 | 2.33 | 2.2 |  |
